# Laboratory results as given in patent US10035785B2, “Phosphoinositide 3-kinase inhibitors” (Karus Therapeutics Limited, priority 2012, dated 2018).
# Key:
# [1] = molecular target: PI3K-p110β (Homo sapiens, UniProt P42338); assay: Biochemical data, PI3K binding potency, PI3K-p110β
# Text: (§1) The following biochemical data have been generated for the exemplified compounds, showing PI3K binding potency.
# [2] = molecular target: PI3K-p110δ (Homo sapiens, UniProt O00329); assay: Biochemical data, PI3K binding potency, PI3K-p110δ
# Text: as §1
# [3] = molecular target: PI3K-p110α (Homo sapiens, UniProt P42336); assay: Biochemical data, PI3K binding potency, PI3K-p110α
# Text: as §1
# [4] = molecular target: PI3K-p110γ (Homo sapiens, UniProt P48736); assay: Biochemical data, PI3K binding potency, PI3K-p110γ
# Text: as §1
# Sequence of PI3K-p110δ (O00329 whole entry): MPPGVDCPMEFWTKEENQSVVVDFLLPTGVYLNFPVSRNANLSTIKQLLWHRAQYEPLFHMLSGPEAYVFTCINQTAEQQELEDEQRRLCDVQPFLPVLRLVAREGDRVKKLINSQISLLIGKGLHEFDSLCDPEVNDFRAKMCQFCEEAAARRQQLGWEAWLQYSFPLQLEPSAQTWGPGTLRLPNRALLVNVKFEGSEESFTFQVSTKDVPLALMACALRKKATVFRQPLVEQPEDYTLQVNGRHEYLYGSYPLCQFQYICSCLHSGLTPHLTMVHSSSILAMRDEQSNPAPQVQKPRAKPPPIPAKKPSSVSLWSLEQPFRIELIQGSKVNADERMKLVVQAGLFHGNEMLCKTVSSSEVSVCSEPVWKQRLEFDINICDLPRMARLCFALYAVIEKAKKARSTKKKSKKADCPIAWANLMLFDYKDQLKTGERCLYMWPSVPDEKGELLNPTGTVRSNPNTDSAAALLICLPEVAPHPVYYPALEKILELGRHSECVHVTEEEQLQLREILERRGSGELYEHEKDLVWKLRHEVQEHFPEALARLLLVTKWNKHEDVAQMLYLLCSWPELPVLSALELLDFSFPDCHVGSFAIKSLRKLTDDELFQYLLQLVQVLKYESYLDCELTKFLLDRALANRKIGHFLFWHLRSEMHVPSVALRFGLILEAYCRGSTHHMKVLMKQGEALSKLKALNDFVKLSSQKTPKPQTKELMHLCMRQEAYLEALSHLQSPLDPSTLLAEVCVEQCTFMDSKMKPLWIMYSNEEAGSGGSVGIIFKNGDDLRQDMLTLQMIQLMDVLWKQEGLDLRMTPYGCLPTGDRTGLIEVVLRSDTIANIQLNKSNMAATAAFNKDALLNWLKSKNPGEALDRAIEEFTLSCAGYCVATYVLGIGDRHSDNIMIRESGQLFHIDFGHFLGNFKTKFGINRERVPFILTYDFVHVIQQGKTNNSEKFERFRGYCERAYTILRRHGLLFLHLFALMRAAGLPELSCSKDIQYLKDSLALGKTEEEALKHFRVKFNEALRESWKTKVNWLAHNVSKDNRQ
# Sequence of PI3K-p110δ (P27986 whole entry partner): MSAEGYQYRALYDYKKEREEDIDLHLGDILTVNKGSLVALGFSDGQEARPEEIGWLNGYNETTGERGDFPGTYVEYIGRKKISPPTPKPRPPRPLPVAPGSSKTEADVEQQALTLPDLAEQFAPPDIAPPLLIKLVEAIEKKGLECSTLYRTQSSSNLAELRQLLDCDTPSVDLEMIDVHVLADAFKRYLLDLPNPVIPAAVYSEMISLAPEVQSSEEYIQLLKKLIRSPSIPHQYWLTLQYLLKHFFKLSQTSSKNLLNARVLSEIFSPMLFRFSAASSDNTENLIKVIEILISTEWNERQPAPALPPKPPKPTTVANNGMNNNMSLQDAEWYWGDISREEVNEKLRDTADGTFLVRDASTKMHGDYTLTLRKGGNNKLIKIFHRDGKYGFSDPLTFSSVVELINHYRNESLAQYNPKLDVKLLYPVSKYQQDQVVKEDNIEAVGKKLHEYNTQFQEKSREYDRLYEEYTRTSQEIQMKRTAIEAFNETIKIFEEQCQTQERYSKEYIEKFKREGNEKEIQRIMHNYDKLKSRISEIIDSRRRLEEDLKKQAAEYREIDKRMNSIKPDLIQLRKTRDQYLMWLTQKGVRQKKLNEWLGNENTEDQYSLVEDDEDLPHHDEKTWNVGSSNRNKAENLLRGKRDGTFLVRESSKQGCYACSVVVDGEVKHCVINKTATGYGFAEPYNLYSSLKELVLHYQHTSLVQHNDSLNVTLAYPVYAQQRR
# Sequence of PI3K-p110α (P42336 whole entry): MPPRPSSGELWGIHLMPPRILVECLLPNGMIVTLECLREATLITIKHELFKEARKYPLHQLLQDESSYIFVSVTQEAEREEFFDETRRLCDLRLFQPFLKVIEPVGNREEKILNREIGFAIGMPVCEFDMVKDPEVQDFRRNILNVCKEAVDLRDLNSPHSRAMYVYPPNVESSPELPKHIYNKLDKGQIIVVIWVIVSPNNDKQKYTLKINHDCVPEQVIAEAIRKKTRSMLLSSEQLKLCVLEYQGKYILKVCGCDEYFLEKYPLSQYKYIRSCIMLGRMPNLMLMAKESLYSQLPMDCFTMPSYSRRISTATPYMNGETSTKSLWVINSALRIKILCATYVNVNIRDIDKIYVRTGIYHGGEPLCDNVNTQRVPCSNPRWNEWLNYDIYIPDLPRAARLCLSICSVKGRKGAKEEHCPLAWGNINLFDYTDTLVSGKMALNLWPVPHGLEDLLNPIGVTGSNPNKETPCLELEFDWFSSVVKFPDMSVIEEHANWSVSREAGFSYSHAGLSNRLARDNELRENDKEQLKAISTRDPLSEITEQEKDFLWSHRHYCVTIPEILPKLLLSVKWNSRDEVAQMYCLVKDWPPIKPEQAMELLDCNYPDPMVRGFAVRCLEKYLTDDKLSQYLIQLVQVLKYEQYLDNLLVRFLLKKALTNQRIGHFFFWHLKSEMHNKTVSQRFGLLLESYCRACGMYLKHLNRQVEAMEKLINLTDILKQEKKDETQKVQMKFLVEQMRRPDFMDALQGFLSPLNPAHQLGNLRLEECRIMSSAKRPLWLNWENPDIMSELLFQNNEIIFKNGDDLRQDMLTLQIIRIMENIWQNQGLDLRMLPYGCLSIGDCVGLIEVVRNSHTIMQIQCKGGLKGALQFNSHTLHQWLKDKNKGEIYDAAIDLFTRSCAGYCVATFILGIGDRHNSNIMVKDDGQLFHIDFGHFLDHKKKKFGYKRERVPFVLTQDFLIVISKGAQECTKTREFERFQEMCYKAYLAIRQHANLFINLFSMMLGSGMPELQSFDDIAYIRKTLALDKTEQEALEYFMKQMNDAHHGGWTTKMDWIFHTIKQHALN
# Sequence of PI3K-p110α (P27986 whole entry partner): as the sequence (P27986 whole entry partner) above
# Sequence of PI3K-p110β (P42338 whole entry): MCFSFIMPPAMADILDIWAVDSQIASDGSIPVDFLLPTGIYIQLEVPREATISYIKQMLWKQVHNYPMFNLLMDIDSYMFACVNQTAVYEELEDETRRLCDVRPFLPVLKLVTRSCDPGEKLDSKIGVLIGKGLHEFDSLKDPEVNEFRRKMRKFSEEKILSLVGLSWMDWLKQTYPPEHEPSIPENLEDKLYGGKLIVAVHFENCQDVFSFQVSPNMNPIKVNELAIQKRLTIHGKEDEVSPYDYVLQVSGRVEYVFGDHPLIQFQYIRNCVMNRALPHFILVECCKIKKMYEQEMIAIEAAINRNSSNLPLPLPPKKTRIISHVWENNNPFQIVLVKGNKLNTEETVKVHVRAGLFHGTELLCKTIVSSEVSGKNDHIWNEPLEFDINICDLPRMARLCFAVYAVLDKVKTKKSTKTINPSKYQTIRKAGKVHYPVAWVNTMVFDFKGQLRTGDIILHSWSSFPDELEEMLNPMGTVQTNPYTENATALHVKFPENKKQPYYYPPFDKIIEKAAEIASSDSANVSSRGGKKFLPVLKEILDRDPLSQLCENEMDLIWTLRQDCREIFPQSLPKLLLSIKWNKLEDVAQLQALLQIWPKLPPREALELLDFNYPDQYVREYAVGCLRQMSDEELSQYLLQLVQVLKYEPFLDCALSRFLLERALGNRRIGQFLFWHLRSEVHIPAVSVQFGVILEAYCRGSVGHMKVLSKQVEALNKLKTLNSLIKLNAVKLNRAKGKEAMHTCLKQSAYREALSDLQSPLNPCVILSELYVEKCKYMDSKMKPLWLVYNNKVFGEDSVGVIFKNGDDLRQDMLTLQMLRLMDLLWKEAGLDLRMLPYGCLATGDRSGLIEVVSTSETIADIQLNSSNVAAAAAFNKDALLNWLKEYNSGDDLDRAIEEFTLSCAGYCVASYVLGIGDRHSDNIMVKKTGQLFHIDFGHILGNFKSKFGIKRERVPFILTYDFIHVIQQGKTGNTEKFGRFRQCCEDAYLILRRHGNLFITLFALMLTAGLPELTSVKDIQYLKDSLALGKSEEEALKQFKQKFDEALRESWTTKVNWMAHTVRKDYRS
# Sequence of PI3K-p110β (P27986 whole entry partner): as the sequence (P27986 whole entry partner) above
# Sequence of PI3K-p110γ (P48736 whole entry): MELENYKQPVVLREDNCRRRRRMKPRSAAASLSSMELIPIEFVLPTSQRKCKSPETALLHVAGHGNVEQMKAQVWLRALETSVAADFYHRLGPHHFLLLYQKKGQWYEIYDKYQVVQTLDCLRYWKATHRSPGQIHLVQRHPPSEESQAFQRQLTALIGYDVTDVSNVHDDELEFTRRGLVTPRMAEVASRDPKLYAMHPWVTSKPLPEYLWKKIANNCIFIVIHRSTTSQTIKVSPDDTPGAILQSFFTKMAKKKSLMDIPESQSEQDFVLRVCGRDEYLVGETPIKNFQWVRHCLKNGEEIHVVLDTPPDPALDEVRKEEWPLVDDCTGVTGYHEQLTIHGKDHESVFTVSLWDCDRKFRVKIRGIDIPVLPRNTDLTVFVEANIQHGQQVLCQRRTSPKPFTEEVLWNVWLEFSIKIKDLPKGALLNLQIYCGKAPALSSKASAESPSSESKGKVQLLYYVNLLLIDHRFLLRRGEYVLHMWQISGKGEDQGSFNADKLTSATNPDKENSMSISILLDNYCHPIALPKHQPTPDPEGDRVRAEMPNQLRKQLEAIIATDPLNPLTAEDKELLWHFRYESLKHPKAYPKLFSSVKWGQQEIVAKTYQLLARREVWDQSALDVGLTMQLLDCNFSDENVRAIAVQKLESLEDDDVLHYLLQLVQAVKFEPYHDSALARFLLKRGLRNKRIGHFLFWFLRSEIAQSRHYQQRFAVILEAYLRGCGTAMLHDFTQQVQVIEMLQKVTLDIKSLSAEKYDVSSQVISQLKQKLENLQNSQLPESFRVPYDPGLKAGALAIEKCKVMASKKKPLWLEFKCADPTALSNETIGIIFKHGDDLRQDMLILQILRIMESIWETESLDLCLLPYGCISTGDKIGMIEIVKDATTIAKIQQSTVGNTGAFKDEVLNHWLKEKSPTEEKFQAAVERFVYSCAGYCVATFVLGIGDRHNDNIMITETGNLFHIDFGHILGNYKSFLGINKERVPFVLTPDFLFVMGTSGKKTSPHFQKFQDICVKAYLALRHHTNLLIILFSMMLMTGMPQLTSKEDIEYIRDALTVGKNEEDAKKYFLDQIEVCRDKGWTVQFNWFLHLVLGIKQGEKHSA
SMILES,IC50 [1],IC50 [2],IC50 [3],IC50 [4]
"CN(C)CCCC(=O)Nc1cc(-c2cccc3[nH]ccc23)nc(N2CCOCC2)c1 [B, 4-Dimethylamino-N-[2-(1H-indol-4-yl)-6-morpholin-4-yl-pyridin-4-yl]-butyramide]",247 nM,177 nM,≥ 10000 nM,≥ 10000 nM
"O=C(CCCN1CCCC1)Nc1cc(-c2cccc3[nH]ccc23)nc(N2CCOCC2)c1 [C, N-[2-(1H-Indol-4-yl)-6-morpholin-4-yl-pyridin-4-yl]-4-pyrrolidin-1-yl-butyramide]",–,953 nM,–,–
